{"source": "patent US12528826B2", "about": "“[1,4]oxazepino[2,3-c]quinolinone derivatives as BCL6 inhibitors” (Cancer Research Technology Limited, priority 2019, dated 2026)"}
{"molecular_target": "T1, Trx-6×His-BCL6 (human BCL6 BTB domain covering amino-acid sequence 5-129) (Homo sapiens, UniProt P41182)", "T1 construct": "made in house", "assay": "HTRF assay (BCL6 / BCOR peptide)", "format": "binding", "settings": "1 nM Trx-6×His-BCL6, 300 nM BCOR-AF633 peptide, 2 hours incubation at room temperature", "experimental": "(§1) After 2 hours incubation at room temperature the plate was read on a Pherastar FSX (BMG Labtech) plate reader equipped with 337 nm laser excitation filter, a first emission filter at 620 nm and a second emission filter at 665 nm. The % inhibition at each concentration was calculated by normalising FRET ratio to the appropriate high (DMSO with all reagents) and low (DMSO without BCL6) controls."}
{"smiles": "COC1CN(c2ncc(Cl)c(Nc3ccc4c(c3)c3c(c(=O)n4C)OCC(F)(F)[C@H](C4CC4)N3)n2)C1", "note": "[Example 11w, (S)-10-((5-chloro-2-(3-methoxyazetidin-1-yl)pyrimidin-4-yl)amino)-2-cyclopropyl-3,3-difluoro-7-methyl-1,2,3,4-tetrahydro-[1,4]oxazepino[2,3-c]quinolin-6(7H)-one]", "HTRF avg pIC50": 8.43}
{"molecular_target": "T1, Trx-6×His-BCL6 (human BCL6 BTB domain covering amino-acid sequence 5-129)", "assay": "HTRF assay (BCL6 / BCOR peptide)", "format": "binding", "settings": "1 nM Trx-6×His-BCL6, 300 nM BCOR-AF633 peptide, 2 hours incubation at room temperature; read-out: HTRF avg pIC50 (converted)", "experimental": "as §1", "units": {"IC50": "nM"}}
{"smiles": "Cn1c(=O)c2c(c3cc(Nc4nc(N5CC(F)C5)ncc4Cl)ccc31)N[C@@H](C1CC1)C(F)(F)CO2", "note": "[Example 11q, (S)-10-((5-chloro-2-(3-fluoroazetidin-1-yl)pyrimidin-4-yl)amino)-2-cyclopropyl-3,3-difluoro-7-methyl-1,2,3,4-tetrahydro-[1,4]oxazepino[2,3-c]quinolin-6(7H)-one]", "IC50": 4.79}
{"smiles": "Cn1c(=O)c2c(c3cc(Nc4nc(N5CC(C)(C#N)C5)ncc4Cl)ccc31)N[C@@H](C1CC1)C(F)(F)CO2", "note": "[Example 11s, (S)-1-(5-chloro-4-((2-cyclopropyl-3,3-difluoro-7-methyl-6-oxo-1,2,3,4,6,7-hexahydro-[1,4]oxazepino[2,3-c]quinolin-10-yl)amino)pyrimidin-2-yl)-3-methylazetidine-3-carbonitrile]", "IC50": 3.89}
{"smiles": "Cn1c(=O)c2c(c3cc(Nc4nc(N5CC(CC#N)C5)ncc4Cl)ccc31)N[C@@H](C1CC1)C(F)(F)CO2", "note": "[Example 11t, (S)-2-(1-(5-chloro-4-((2-cyclopropyl-3,3-difluoro-7-methyl-6-oxo-1,2,3,4,6,7-hexahydro-[1,4]oxazepino[2,3-c]quinolin-10-yl)amino)pyrimidin-2-yl)azetidin-3-yl)acetonitrile]", "IC50": 3.47}
{"smiles": "Cn1c(=O)c2c(c3cc(Nc4nc(N5CC(C(F)F)C5)ncc4Cl)ccc31)N[C@@H](C1CC1)C(F)(F)CO2", "note": "[Example 11u, (S)-10-((5-chloro-2-(3-(difluoromethyl)azetidin-1-yl)pyrimidin-4-yl)amino)-2-cyclopropyl-3,3-difluoro-7-methyl-1,2,3,4-tetrahydro-[1,4]oxazepino[2,3-c]quinolin-6(7H)-one]", "IC50": 11.5}
{"smiles": "Cn1c(=O)c2c(c3cc(Nc4nc(N5CCC5)ncc4Cl)ccc31)N[C@@H](C1CC1)C(F)(F)CO2", "note": "[Example 11v, (S)-10-((2-(azetidin-1-yl)-5-chloropyrimidin-4-yl)amino)-2-cyclopropyl-3,3-difluoro-7-methyl-1,2,3,4-tetrahydro-[1,4]oxazepino[2,3-c]quinolin-6(7H)-one]", "IC50": 5.37}
{"smiles": "COC1(C)CN(c2ncc(Cl)c(Nc3ccc4c(c3)c3c(c(=O)n4C)OCC(F)(F)[C@H](C4CC4)N3)n2)C1", "note": "[Example 11x, (S)-10-((5-chloro-2-(3-methoxy-3-methylazetidin-1-yl)pyrimidin-4-yl)amino)-2-cyclopropyl-3,3-difluoro-7-methyl-1,2,3,4-tetrahydro-[1,4]oxazepino[2,3-c]quinolin-6(7H)-one]", "IC50": 3.55}
{"smiles": "C[C@@H]1C[C@H](N)CN(c2ncc(Cl)c(Nc3ccc4c(c3)c3c(c(=O)n4C)OCC(F)(F)[C@H](C4CC4)N3)n2)C1", "note": "[Example 12b, (S)-10-((2-((3S,5R)-3-amino-5-methylpiperidin-1-yl)-5-chloropyrimidin-4-yl)amino)-2-cyclopropyl-3,3-difluoro-7-methyl-1,2,3,4-tetrahydro-[1,4]oxazepino[2,3-c]quinolin-6(7H)-one]", "IC50": 2.51}
{"smiles": "C[C@H]1C[C@@H](N)CN(c2ncc(Cl)c(Nc3ccc4c(c3)c3c(c(=O)n4C)OCC(F)(F)[C@H](C4CC4)N3)n2)C1", "note": "[Example 12c, (S)-10-((2-((3R,5S)-3-amino-5-methylpiperidin-1-yl)-5-chloropyrimidin-4-yl)amino)-2-cyclopropyl-3,3-difluoro-7-methyl-1,2,3,4-tetrahydro-[1,4]oxazepino[2,3-c]quinolin-6(7H)-one]", "IC50": 2.95}
{"smiles": "Cn1c(=O)c2c(c3cc(Nc4nc(N5CC6CC(C5)O6)ncc4Cl)ccc31)N[C@@H](C1CC1)C(F)(F)CO2", "note": "[Example 12d, (2S)-10-((2-(6-oxa-3-azabicyclo[3.1.1]heptan-3-yl)-5-chloropyrimidin-4-yl)amino)-2-cyclopropyl-3,3-difluoro-7-methyl-1,2,3,4-tetrahydro-[1,4]oxazepino[2,3-c]quinolin-6(7H)-one]", "IC50": 4.9}
{"smiles": "C[C@@H]1CN(C)CCN(c2ncc(Cl)c(Nc3ccc4c(c3)c3c(c(=O)n4C)OCC(F)(F)[C@H](C4CC4)N3)n2)C1", "note": "[Example 12g, (S)-10-((5-chloro-2-((R)-4,6-dimethyl-1,4-diazepan-1-yl)pyrimidin-4-yl)amino)-2-cyclopropyl-3,3-difluoro-7-methyl-1,2,3,4-tetrahydro-[1,4]oxazepino[2,3-c]quinolin-6(7H)-one:(S)-10-((5-chloro-2-((S)-4,6-dimethyl-1,4-diazepan-1-yl)pyrimidin-4-yl)amino)-2-cyclopropyl-3,3-difluoro-7-methyl-1,2,3,4-tetrahydro-[1,4]oxazepino[2,3-c]quinolin-6(7H)-one (1:1)]", "IC50": 2.63}
{"smiles": "C[C@H]1CCN(c2ncc(Cl)c(Nc3ccc4c(c3)c3c(c(=O)n4C)OCC(F)(F)[C@H](C4CC4)N3)n2)C1", "note": "[Example 12x01, (S)-10-((5-chloro-2-((S)-3-methylpyrrolidin-1-yl)pyrimidin-4-yl)amino)-2-cyclopropyl-3,3-difluoro-7-methyl-1,2,3,4-tetrahydro-[1,4]oxazepino[2,3-c]quinolin-6(7H)-one]", "IC50": 26.9}
{"smiles": "C[C@@H]1CCN(c2ncc(Cl)c(Nc3ccc4c(c3)c3c(c(=O)n4C)OCC(F)(F)[C@H](C4CC4)N3)n2)C1", "note": "[Example 12x02, (S)-10-((5-chloro-2-((R)-3-methylpyrrolidin-1-yl)pyrimidin-4-yl)amino)-2-cyclopropyl-3,3-difluoro-7-methyl-1,2,3,4-tetrahydro-[1,4]oxazepino[2,3-c]quinolin-6(7H)-one]", "IC50": 21.4}
{"smiles": "C[C@H]1C[C@@H](F)CN(c2ncc(Cl)c(Nc3ccc4c(c3)c3c(c(=O)n4C)OCC(F)(F)[C@H](C4CC4)N3)n2)C1", "note": "[Example 12x03, (S)-10-((5-chloro-2-((3R,5S)-3-fluoro-5-methylpiperidin-1-yl)pyrimidin-4-yl)amino)-2-cyclopropyl-3,3-difluoro-7-methyl-1,2,3,4-tetrahydro-[1,4]oxazepino[2,3-c]quinolin-6(7H)-one]", "IC50": 15.5}
{"smiles": "CO[C@@H]1C[C@H](C)CN(c2ncc(Cl)c(Nc3ccc4c(c3)c3c(c(=O)n4C)OCC(F)(F)[C@H](C4CC4)N3)n2)C1", "note": "[Example 12x05, (S)-10-((5-chloro-2-((3R,5S)-3-methoxy-5-methylpiperidin-1-yl)pyrimidin-4-yl)amino)-2-cyclopropyl-3,3-difluoro-7-methyl-1,2,3,4-tetrahydro-[1,4]oxazepino[2,3-c]quinolin-6(7H)-one]", "IC50": 3.72}
{"smiles": "CC1CN(c2ncc(Cl)c(Nc3ccc4c(c3)c3c(c(=O)n4C)OCC(F)(F)[C@H](C4CC4)N3)n2)CC(C)S1", "note": "(stereo partly drawn) [Example 12x06, (2S)-10-((5-chloro-2-(2,6-dimethylthiomorpholino)pyrimidin-4-yl)amino)-2-cyclopropyl-3,3-difluoro-7-methyl-1,2,3,4-tetrahydro-[1,4]oxazepino[2,3-c]quinolin-6(7H)-one]", "IC50": 30.2}
{"smiles": "CC1CCCN(c2ncc(Cl)c(Nc3ccc4c(c3)c3c(c(=O)n4C)OCC(F)(F)[C@H](C4CC4)N3)n2)C1C", "note": "(stereo partly drawn) [Example 12x08, (2S)-10-((5-chloro-2-(2,3-dimethylpiperidin-1-yl)pyrimidin-4-yl)amino)-2-cyclopropyl-3,3-difluoro-7-methyl-1,2,3,4-tetrahydro-[1,4]oxazepino[2,3-c]quinolin-6(7H)-one]", "IC50": 58.9}
{"smiles": "CC1CN(c2ncc(Cl)c(Nc3ccc4c(c3)c3c(c(=O)n4C)OCC(F)(F)[C@H](C4CC4)N3)n2)CC(C)[S+]1[O-]", "note": "(stereo partly drawn) [Example 12x09, (2S)-10-((5-chloro-2-(2,6-dimethyl-1-oxidothiomorpholino)pyrimidin-4-yl)amino)-2-cyclopropyl-3,3-difluoro-7-methyl-1,2,3,4-tetrahydro-[1,4]oxazepino[2,3-c]quinolin-6(7H)-one]", "IC50": 1.7}
{"smiles": "CC1CCC(CO)N(c2ncc(Cl)c(Nc3ccc4c(c3)c3c(c(=O)n4C)OCC(F)(F)[C@H](C4CC4)N3)n2)C1", "note": "(stereo partly drawn) [Example 12x10, (2S)-10-((5-chloro-2-(2-(hydroxymethyl)-5-methylpiperidin-1-yl)pyrimidin-4-yl)amino)-2-cyclopropyl-3,3-difluoro-7-methyl-1,2,3,4-tetrahydro-[1,4]oxazepino[2,3-c]quinolin-6(7H)-one]", "IC50": 11.7}
{"smiles": "CC1CN(c2ncc(Cl)c(Nc3ccc4c(c3)c3c(c(=O)n4C)OCC(F)(F)[C@H](C4CC4)N3)n2)CC(C)S1(=O)=O", "note": "(stereo partly drawn) [Example 12x11, (2S)-10-((5-chloro-2-(2,6-dimethyl-1,1-dioxidothiomorpholino)pyrimidin-4-yl)amino)-2-cyclopropyl-3,3-difluoro-7-methyl-1,2,3,4-tetrahydro-[1,4]oxazepino[2,3-c]quinolin-6(7H)-one]", "IC50": 1.62}
{"smiles": "CC1CCC(C)N(c2ncc(Cl)c(Nc3ccc4c(c3)c3c(c(=O)n4C)OCC(F)(F)[C@H](C4CC4)N3)n2)C1", "note": "(stereo partly drawn) [Example 12x12, (2S)-10-((5-chloro-2-(2,5-dimethylpiperidin-1-yl)pyrimidin-4-yl)amino)-2-cyclopropyl-3,3-difluoro-7-methyl-1,2,3,4-tetrahydro-[1,4]oxazepino[2,3-c]quinolin-6(7H)-one]", "IC50": 56.2}
{"smiles": "C[C@H]1C[C@H](O)CN(c2ncc(Cl)c(Nc3ccc4c(c3)c3c(c(=O)n4C)OCC(F)(F)[C@H](C4CC4)N3)n2)C1", "note": "[Example 12x13, (S)-10-((5-chloro-2-((3S,5S)-3-hydroxy-5-methylpiperidin-1-yl)pyrimidin-4-yl)amino)-2-cyclopropyl-3,3-difluoro-7-methyl-1,2,3,4-tetrahydro-[1,4]oxazepino[2,3-c]quinolin-6(7H)-one]", "IC50": 5.62}
